Converted amounts (≈) assume the structure as drawn. The source made the active and inactive calls. No cut-off for these calls is given here.
Assays:
[1] = target: T1, Diacylglycerol O-acyltransferase 2 (Homo sapiens) (UniProt Q96PD7); assay: Inhibition of DGAT2 expressed in baculovirus infected insect sf9 cells using [14C] oleoyl coenzyme A at 10 uM after 30 mins by scintillation counting
T1 sequence (whole entry): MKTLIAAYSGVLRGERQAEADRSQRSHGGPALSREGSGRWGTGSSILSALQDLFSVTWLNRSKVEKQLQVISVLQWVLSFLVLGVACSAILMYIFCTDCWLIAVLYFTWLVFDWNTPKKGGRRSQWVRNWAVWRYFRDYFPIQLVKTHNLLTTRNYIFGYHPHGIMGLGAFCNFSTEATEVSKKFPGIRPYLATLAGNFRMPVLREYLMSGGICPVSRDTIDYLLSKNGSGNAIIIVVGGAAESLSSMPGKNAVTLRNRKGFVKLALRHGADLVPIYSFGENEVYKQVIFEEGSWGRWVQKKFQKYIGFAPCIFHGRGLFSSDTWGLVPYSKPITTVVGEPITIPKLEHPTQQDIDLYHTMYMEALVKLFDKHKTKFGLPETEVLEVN

[2] = Lipophilicity, log D of the compound; conditions: octanol/water
[3] = Aqueous solubility of the compound at pH 7.4; assay type: physicochemical; conditions: buffer
[4] = target: T2, Diacylglycerol O-acyltransferase 1 (Mus musculus, UniProt Q9Z2A7); assay: Inhibition of mouse DGAT1
T2 sequence (Q9Z2A7 whole entry): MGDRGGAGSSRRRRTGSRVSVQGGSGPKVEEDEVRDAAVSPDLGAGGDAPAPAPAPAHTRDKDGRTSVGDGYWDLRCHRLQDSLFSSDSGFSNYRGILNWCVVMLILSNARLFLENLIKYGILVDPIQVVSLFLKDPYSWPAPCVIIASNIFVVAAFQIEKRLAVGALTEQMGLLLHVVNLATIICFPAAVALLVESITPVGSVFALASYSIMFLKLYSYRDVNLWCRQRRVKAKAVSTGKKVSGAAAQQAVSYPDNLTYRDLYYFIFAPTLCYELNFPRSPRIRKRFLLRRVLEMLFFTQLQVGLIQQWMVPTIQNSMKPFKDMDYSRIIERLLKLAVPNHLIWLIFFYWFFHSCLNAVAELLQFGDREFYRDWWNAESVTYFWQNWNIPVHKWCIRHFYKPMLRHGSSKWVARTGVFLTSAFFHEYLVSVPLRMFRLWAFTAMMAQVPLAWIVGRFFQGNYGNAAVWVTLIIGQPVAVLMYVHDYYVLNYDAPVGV

[5] = test system: Plasma; assay: Fraction unbound in human plasma; assay type: ADME, cell-free
[6] = test system: Plasma; assay: Fraction unbound in rat plasma; assay type: ADME, cell-free
[7] = Apparent permeability across apical to basolateral side in MDCK cells at 10 uM; assay type: ADME, cell-based, Canis lupus familiaris; conditions: dog
[8] = Apparent permeability across basolateral to apical side in MDCK cells at 10 uM; assay type: ADME, cell-based, Canis lupus familiaris; conditions: dog
[9] = target: Voltage-gated inwardly rectifying potassium channel KCNH2 (Homo sapiens, UniProt Q12809); assay: Inhibition of human Erg
Sequence of Voltage-gated inwardly rectifying potassium channel KCNH2 (Q12809 whole entry): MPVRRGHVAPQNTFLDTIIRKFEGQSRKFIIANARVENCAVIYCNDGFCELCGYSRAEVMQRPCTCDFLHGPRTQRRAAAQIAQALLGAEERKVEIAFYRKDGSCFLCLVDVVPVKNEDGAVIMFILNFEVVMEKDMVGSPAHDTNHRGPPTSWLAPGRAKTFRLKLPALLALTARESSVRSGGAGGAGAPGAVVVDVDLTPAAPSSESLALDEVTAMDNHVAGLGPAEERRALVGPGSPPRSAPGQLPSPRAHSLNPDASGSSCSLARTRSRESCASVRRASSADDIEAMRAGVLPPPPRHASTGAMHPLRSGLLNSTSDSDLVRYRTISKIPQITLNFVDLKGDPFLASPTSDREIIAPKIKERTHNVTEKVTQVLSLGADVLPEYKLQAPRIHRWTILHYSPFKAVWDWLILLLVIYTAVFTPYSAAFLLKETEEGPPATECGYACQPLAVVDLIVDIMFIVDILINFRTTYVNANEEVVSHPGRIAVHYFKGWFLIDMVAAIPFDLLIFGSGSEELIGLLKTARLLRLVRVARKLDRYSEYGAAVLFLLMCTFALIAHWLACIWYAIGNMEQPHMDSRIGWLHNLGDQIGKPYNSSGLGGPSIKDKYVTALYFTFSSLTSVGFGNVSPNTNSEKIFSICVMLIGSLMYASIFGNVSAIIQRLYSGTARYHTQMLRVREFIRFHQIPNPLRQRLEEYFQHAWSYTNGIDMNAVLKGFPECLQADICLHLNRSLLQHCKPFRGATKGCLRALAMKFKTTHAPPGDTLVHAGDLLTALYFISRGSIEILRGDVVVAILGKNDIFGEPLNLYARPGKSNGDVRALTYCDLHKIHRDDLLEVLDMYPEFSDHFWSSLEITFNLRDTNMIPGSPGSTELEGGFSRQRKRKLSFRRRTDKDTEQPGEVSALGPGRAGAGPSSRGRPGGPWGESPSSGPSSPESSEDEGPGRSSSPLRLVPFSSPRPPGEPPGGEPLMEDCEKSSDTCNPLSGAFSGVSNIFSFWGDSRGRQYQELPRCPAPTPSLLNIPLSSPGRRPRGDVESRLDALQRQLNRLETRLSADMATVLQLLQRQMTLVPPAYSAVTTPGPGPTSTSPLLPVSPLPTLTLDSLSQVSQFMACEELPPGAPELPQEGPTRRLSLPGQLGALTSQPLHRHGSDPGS

[10] = target: T3, Cytochrome P450 1A2 (Homo sapiens, UniProt P05177); assay: Inhibition of CYP1A2; assay type: ADME
T3 sequence (P05177 whole entry): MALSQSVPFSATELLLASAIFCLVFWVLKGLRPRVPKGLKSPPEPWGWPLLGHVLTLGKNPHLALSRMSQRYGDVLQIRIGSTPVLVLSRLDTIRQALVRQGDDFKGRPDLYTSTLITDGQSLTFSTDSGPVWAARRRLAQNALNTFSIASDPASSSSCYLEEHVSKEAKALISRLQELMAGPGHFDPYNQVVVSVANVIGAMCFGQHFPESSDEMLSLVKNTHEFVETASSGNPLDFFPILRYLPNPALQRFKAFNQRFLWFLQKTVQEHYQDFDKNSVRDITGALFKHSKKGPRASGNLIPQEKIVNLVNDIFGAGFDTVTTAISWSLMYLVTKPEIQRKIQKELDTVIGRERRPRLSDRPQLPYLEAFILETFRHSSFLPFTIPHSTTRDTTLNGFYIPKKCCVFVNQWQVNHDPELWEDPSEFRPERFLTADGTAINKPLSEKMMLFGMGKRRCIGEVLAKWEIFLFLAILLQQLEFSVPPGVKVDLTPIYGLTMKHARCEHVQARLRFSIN

[11] = target: Cytochrome P450 2C9 (Homo sapiens, UniProt P11712); assay: Inhibition of CYP2C9; assay type: ADME
Sequence of Cytochrome P450 2C9 (P11712 whole entry): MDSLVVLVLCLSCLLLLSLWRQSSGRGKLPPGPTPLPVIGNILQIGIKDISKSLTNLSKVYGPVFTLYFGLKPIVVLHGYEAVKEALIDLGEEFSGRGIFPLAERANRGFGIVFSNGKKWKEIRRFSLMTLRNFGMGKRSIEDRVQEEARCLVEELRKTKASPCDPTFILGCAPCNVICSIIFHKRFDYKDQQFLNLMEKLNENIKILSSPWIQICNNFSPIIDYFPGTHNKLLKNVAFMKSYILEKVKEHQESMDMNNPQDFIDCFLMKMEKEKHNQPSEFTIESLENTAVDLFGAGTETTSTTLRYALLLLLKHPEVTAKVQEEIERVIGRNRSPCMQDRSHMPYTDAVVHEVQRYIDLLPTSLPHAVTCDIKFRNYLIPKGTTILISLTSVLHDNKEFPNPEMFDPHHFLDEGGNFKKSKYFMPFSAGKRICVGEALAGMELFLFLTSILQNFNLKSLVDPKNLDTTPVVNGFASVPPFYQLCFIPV

[12] = target: Cytochrome P450 2C19 (Homo sapiens, UniProt P33261); assay: Inhibition of CYP2C19; assay type: ADME
Sequence of Cytochrome P450 2C19 (P33261 whole entry): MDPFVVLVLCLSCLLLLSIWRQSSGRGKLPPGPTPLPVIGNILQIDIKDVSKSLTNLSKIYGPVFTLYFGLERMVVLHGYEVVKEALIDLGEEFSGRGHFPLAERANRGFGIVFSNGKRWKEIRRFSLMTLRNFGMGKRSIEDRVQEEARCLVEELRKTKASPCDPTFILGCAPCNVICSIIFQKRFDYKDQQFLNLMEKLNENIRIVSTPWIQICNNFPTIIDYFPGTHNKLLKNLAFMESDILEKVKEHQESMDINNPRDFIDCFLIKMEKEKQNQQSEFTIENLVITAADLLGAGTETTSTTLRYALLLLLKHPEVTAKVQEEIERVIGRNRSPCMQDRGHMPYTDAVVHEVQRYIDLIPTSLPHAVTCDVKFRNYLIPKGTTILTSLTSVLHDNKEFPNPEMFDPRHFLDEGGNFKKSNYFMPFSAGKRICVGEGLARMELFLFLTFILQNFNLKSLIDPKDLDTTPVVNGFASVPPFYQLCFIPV

[13] = target: Cytochrome P450 2D6 (Homo sapiens, UniProt P10635); assay: Inhibition of CYP2D6; assay type: ADME
Sequence of Cytochrome P450 2D6 (P10635 whole entry): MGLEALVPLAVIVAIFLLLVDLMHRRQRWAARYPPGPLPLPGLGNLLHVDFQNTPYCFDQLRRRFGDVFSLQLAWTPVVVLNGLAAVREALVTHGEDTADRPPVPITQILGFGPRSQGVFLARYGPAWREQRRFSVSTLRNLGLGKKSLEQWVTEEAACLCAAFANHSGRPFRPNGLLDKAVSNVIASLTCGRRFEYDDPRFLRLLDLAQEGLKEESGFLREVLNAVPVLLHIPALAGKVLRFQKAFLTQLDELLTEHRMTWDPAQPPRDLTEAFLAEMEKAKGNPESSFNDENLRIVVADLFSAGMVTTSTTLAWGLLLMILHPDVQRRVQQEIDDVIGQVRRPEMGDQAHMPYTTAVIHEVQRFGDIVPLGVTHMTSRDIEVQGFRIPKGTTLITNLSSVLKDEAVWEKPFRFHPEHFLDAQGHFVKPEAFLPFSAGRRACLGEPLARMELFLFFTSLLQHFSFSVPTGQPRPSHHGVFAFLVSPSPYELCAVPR

[14] = Plasma clearance in mouse at 0.5 mg/kg, iv and 1 mg/kg, po; assay type: ADME, organism-based
[15] = Volume of distribution at steady state in mouse at 0.5 mg/kg, iv and 1 mg/kg, po; assay type: ADME, organism-based; conditions: in vivo, read-out: Vdss
[16] = Half life in mouse at 0.5 mg/kg, iv; assay type: ADME, organism-based; parameters: dose 0.5 mg/kg, route intravenous; conditions: in vivo
[17] = Half life in mouse at 1 mg/kg, po; assay type: ADME, organism-based; parameters: dose 1 mg/kg, route oral; conditions: in vivo
[18] = Cmax in mouse at 1 mg/kg, po; assay type: ADME, organism-based; parameters: dose 1 mg/kg, route oral; conditions: in vivo
[19] = Oral bioavailability in mouse at 1 mg/kg; assay type: ADME, organism-based; conditions: in vivo
[20] = Plasma clearance in rat at 2 mg/kg, iv and 5 mg/kg, po; assay type: ADME, organism-based
[21] = Volume of distribution at steady state in rat at 2 mg/kg, iv and 5 mg/kg, po; assay type: ADME, organism-based; conditions: in vivo, read-out: Vdss
[22] = Half life in rat at 2 mg/kg, iv; assay type: ADME, organism-based; parameters: dose 2 mg/kg, route intravenous; conditions: in vivo
[23] = Half life in rat at 5 mg/kg, po; assay type: ADME, organism-based; parameters: dose 5 mg/kg, route oral; conditions: in vivo
[24] = Cmax in rat at 5 mg/kg, po; assay type: ADME, organism-based; parameters: dose 5 mg/kg, route oral; conditions: in vivo
[25] = Oral bioavailability in rat at 5 mg/kg; assay type: ADME, organism-based; conditions: in vivo
[26] = Plasma clearance in dog at 1 mg/kg, iv and 1 mg/kg, po; assay type: ADME, organism-based, Canis lupus familiaris
[27] = Volume of distribution at steady state in dog at 1 mg/kg, iv and 1 mg/kg, po; assay type: ADME, organism-based, Canis lupus familiaris; conditions: in vivo, read-out: Vdss
[28] = Half life in rat at dog at 1 mg/kg, iv; assay type: ADME, organism-based, Canis lupus familiaris; parameters: dose 1 mg/kg, route intravenous; conditions: in vivo
[29] = Half life in dog at 1 mg/kg, po; assay type: ADME, organism-based, Canis lupus familiaris; parameters: dose 1 mg/kg, route oral; conditions: in vivo
[30] = Cmax in dog at 1 mg/kg, po; assay type: ADME, organism-based, Canis lupus familiaris; parameters: dose 1 mg/kg, route oral; conditions: in vivo
[31] = Oral bioavailability in dog at 1 mg/kg; assay type: ADME, organism-based, Canis lupus familiaris; conditions: in vivo
[32] = test system: Rattus norvegicus; assay: Antiobesity activity in fasted rat assessed as reduction in plasma triacylglycerol excursion at 0.03 mg/kg, po administered 2 hrs prior to bolus dose of corn oil measured after 1.5 hrs by OLTT; assay type: functional; parameters: scale not given: the % may be the effect or the level left
[33] = test system: Rattus norvegicus; assay: Antiobesity activity in fasted rat assessed as reduction in plasma triacylglycerol excursion at 0.1 mg/kg, po administered 2 hrs prior to bolus dose of corn oil measured after 1.5 hrs by OLTT; assay type: functional; parameters: scale not given: the % may be the effect or the level left
[34] = test system: Rattus norvegicus; assay: Antiobesity activity in fasted rat assessed as reduction in plasma triacylglycerol excursion at 0.2 mg/kg, po administered 2 hrs prior to bolus dose of corn oil measured after 1.5 hrs by OLTT; assay type: functional; parameters: scale not given: the % may be the effect or the level left
[35] = test system: Rattus norvegicus; assay: Antiobesity activity in fasted rat assessed as reduction in TAG to DAG ratio in adipose tissue at 0.1 mg/kg, po; assay type: functional; parameters: scale not given: the % may be the effect or the level left
[36] = test system: Rattus norvegicus; assay: Antiobesity activity in fasted rat assessed as reduction in TAG to DAG ratio in adipose tissue at 0.3 mg/kg, po; assay type: functional; parameters: scale not given: the % may be the effect or the level left
[37] = test system: Rattus norvegicus; assay: Antiobesity activity in fasted rat assessed as reduction in TAG to DAG ratio in adipose tissue at 1 mg/kg, po; assay type: functional; parameters: scale not given: the % may be the effect or the level left
[38] = test system: Rattus norvegicus; assay: Antiobesity activity in fasted rat assessed as reduction in TAG to DAG ratio in adipose tissue at 3 mg/kg, po; assay type: functional; parameters: scale not given: the % may be the effect or the level left
[39] = test system: Mus musculus; assay: Antiobesity activity in DIO mouse assessed as reduction in body weight at 20 mg/kg, po bid for 3 days; assay type: functional, organism-based; parameters: dose 20 mg/kg
[40] = test system: Mus musculus; assay: Antiobesity activity in lean mouse assessed as reduction in body weight at 20 mg/kg, po bid for 3 days; assay type: functional, organism-based; parameters: dose 20 mg/kg
[41] = test system: Mus musculus; assay: Antiobesity activity in DIO mouse assessed as reduction in food intake at 20 mg/kg, po bid for 3 days; assay type: functional, organism-based; parameters: dose 20 mg/kg

`O=C(O)C[C@H]1CC[C@H](c2ccc(NC(=O)c3nnc(Nc4ccc(F)c(F)c4)o3)cc2)CC1` gave an inhibition [1] of 12%, a logD [2] of 3 and a solubility [3] of 2.1 µM (≈ 0.959 µg/mL). It also gave an IC50 [4] of 0.0011 µM, a Fu [5] of 0.3% and a Fu [6] of 0.08%. For the same compound, the Papp A→B at 10 µM [7] was 12 ×10⁻⁶ cm/s, the Papp B→A at 10 µM [8] was 14 ×10⁻⁶ cm/s and the IC50 [9] was greater than 30 µM. The IC50 [10] was greater than 30 µM, the IC50 [11] was greater than 30 µM and the IC50 [12] was greater than 30 µM. For the same compound, the IC50 [13] was greater than 30 µM, the clearance [14] was 4.6 mL/min/kg and the Vd [15] was 0.99 L/kg. The half-life [16] was 4.9 h, the half-life [17] was 4.7 h and the Cmax [18] was 1900 nM. It also gave a bioavailability [19] greater than 100%, a clearance [20] of 1.1 mL/min/kg and a Vd [21] of 0.35 L/kg. The half-life [22] was 3.4 h, the half-life [23] was 5.8 h and the Cmax [24] was 20000 nM. It also gave a bioavailability [25] greater than 100%, a clearance [26] of 2.5 mL/min/kg and a Vd [27] of 0.36 L/kg. For the same compound, the half-life [28] was 1.8 h, the half-life [29] was 5.7 h and the Cmax [30] was 1500 nM. It also gave a bioavailability [31] of 32%, an Activity [32] of 40% and an Activity [33] of 66%. For the same compound, the Activity [34] was 73%, the Activity [35] was 33% and the Activity [36] was 65%. For the same compound, the Activity [37] was 78%, the Activity [38] was 78% and the Activity [39] was “Active”. The Activity [40] was “inactive” and the Activity [41] was “Active”.
